Earlier results as cited in patent US20080096857A1, “Photodynamic Therapy For The Treatment Of Hyperactive Sebaceous Gland Disorders Using Topically Applied Hydrophobic Green Porphyrins” (QLT Inc., priority 2004, published 2008).

Tested on: acne vulgaris
Conditions: topical ALA-PDT of acne vulgaris; J. Invest Dermatol 115:183-192, 2000

Question: With `NCC(=O)CCC(=O)O` [ALA, 5-aminolevulinic acid] as the compound, how does the “adverse events during and after the treatment” value read?
Answer: serious adverse events that occurred during and after the treatment including erythema, edema, and sensations of pain, burning and itching
